Each structure is given as a SMILES string. Like-named read-outs stand apart in the source and are kept apart here.

The target of assay [1] is T1, recombinant OSBP-myc-his (Homo sapiens, UniProt P22059).
T1 construct: made in house; host or cells: HEK-293T (crude S100 lysate, not purified)
T1 sequence (P22059 1-807): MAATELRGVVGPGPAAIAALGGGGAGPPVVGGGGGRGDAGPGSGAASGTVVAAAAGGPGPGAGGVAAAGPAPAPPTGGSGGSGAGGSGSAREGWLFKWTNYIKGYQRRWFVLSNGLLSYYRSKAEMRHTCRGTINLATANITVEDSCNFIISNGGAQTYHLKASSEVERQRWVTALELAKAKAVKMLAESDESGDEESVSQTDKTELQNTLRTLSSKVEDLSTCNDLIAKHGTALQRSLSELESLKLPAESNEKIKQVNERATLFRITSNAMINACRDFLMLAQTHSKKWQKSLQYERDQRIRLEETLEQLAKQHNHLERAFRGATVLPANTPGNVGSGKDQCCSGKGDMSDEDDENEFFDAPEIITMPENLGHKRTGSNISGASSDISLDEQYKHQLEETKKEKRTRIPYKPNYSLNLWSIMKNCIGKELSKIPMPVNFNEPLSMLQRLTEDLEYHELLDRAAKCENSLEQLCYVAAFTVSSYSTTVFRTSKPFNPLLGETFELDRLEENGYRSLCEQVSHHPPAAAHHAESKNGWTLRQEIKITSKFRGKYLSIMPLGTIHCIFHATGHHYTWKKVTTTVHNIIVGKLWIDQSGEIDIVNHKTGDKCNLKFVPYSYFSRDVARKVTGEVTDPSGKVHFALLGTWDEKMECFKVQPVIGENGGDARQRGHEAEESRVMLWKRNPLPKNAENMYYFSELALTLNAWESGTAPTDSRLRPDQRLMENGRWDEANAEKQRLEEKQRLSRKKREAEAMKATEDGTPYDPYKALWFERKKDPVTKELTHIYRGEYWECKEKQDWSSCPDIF
Put plainly: competitive binding assay, displacement of [3H]-25-OHC from OSBP (charcoal-dextran, liquid scintillation counting). To be noted: 20 nM [3H]-25-OHC, OSBP-myc-his S100 lysate (HEK-293T), 16 h at 4° C.; read-out: Ki, displacing OSBP-bound [3H]-25-OHC. On the procedure: (§1) It has been determined that CRAMs inhibit the binding of radiolabelled 25-OHC ([^3H]-25-OHC) to recombinant OSBP-myc-his and ORP4-myc-his overexpressed in HEK-293T lysate (FIG. 18). It is known that 25-hydroxycholesterol is a high affinity ligand for OSBP and ORP4. Increasing concentrations of CRAMs or OSW-1 analogs were incubated with 20 nM [^3H]-25-OHC in OSBP-myc-his or ORP4-myc-his S100 lysate for 16 h at 4° C. after which unbound sterol was removed using charcoal-dextran and the bound sterol quantified by LCS (liquid scintillation counting).
(§2) These experiments provide evidence that CRAMs are ligands of OSBP and ORP4, and in the case of 1 and 2, they are high affinity ligands.
(§3) To measure the Kis of CRAMs to OSBP and ORP4 reported above, a previously reported dextran-coated charcoal assay was adapted into a 96-well format. […] To solve these limitations a binding SPA (scintillation proximity assay) for OSBP/ORPs (FIG. 26) will be developed.

Assay [2] addresses T2, ORP4-myc-his (Homo sapiens, UniProt Q969R2).
T2 construct: made in house; host or cells: HEK-293T (crude S100 lysate, not purified)
The experiment in a line: competitive binding assay, displacement of [3H]-25-OHC from ORP4. To be noted: 20 nM [3H]-25-OHC, ORP4-myc-his S100 lysate (HEK-293T), 16 h at 4° C.; read-out: Ki, displacing [3H]-25-OHC from ORP4. On the procedure:
as §1, §2, §3

Assay [3] relates to HCT-116 p21−/− shNT and shOSBP cells. Put plainly: CRAM cytotoxicity after shRNA knockdown of OSBP, HCT-116 p21−/−. Format: cell-based. From the text: FIG. 17 depicts CRAM cytotoxicity in shRNA OSBP knockdown cell lines. A: Dose curves from a representative experiment. B: GI50 values of CRAMs and control compounds in HCT-116 p21−/− shNT and shOSBP cells and densitometric analysis of OSBP-levels. shNT=non-targeting shRNA, shOSBP=OSBP-targeting shRNA; * P=0.0006 (n=4), ** P=0.0002 (n=3), *** P=0.0003 (n=3), and **** P≦0.0001 (n=7) compared to shNT-treated cells.
To determine whether the cytotoxicity of CRAMs depends on the amount of OSBP in cells, the effects of shRNA knockdown of OSBP on the growth inhibitory activity of CRAMs was measured. Treatment of HCT-116 p21^−/− cells with shRNA targeted to OSBP [24] caused an 84% reduction in the level of OSBP as measured by western blot (FIG. 17B, bottom right).

The test system is the same in assay [4]. The assay is described as above. It counts as cell-based. To be noted: OSBP knocked down by 89% (FIG. 8).
Assay [5] deals with NCI-60. The following applies: read-out: GI50, average against the NCI-60; cited from earlier work.
For assay [6], the system named is HL-60. The following applies: cited from earlier work.
Assay [7] deals with normal lymphocytes. The following applies: cited from earlier work.
For assay [8], the system named is CLL (chronic lymphocytic leukemia) cells taken from patients. The following applies: read-out: GI50, CLL cells refractory to fludarabine; cited from earlier work.

T2 sequence (Q969R2 whole entry): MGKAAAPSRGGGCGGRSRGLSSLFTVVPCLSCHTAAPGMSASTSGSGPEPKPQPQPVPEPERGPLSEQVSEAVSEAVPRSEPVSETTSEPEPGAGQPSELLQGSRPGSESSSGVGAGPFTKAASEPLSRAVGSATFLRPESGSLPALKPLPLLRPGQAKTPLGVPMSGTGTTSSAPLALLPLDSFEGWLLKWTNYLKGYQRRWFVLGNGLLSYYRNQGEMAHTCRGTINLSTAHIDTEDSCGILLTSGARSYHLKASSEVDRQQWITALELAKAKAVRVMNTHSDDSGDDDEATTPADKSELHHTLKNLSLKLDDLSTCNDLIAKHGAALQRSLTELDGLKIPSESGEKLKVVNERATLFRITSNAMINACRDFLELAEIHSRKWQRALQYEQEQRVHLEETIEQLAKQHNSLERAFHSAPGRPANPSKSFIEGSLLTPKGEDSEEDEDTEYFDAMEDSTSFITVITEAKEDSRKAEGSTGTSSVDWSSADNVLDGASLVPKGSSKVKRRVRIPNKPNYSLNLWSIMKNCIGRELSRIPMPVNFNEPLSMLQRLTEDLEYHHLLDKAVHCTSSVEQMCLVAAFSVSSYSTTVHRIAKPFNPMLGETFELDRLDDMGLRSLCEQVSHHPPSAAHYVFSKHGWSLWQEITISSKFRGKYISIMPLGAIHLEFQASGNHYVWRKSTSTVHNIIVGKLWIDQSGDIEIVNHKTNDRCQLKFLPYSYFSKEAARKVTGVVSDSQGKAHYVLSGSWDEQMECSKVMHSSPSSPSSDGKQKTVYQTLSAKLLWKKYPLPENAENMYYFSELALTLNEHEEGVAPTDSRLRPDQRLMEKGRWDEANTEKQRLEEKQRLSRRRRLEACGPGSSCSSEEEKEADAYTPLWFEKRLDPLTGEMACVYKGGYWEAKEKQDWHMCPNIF

As usually defined, the Ki is a dissociation constant, usually derived from enzyme kinetics or from competition with a known ligand. For `COc1ccc(C(=O)O[C@H]2[C@H](O[C@@H]3[C@@H](OC(C)=O)[C@H](O[C@H]4C[C@H]5[C@@H]6CC=C7C[C@@H](O)CC[C@]7(C)[C@H]6CC[C@]5(C)[C@@]4(O)[C@H](C)C(=O)CCC(C)C)OC[C@@H]3O)OC[C@@H](O)[C@@H]2O)cc1` [OSW-1], the Ki worked out at 21 nM in assay [1] and 32 nM in assay [2]. Moreover, the “sensitization by OSBP knockdown” value in assay [3] (HCT-116 p21−/−) was “sensitizes”. For the same compound, the “sensitization (GI50 shift) by OSBP knockdown” value in assay [3] (HCT-116 p21−/−, OSBP knockdown by 84%) is recorded as 5.6 fold. For the same compound, the GI50 in assay [3] (OSBP knockdown by 84%, read-out: GI50 in HCT-116 p21−/− after shRNA knockdown of OSBP) is 0.04 nM; in assay [3] (non-targeting shRNA, read-out: GI50 in HCT-116 p21−/− shNT cells) it was 0.23 nM; in assay [5], 0.78 nM; in assay [6] (read-out: GI50, HL-60 leukemia cells), 0.04 nM; in assay [7], 1.73 nM; in assay [8], 0.3 nM. Besides, the “more sensitive after OSBP knockdown” value in assay [4] amounted to 5.7 ×. The “more active in leukemia cells versus normal lymphocytes” value in assay [6] (HL-60 versus normal lymphocytes) is listed as 40 times.

These data come from patent US20110319352A1, “Compounds That Bind Oxysterol Binding Proteins, and Methods of Use Thereof” (President and Fellows of Harvard College, priority 2008, published 2011).
